Reference: EP4782453A1 (Beyang Therapeutics Co., Ltd., priority 2023, dated 2025)
Where two headings read alike, the source gives them in different places.

How the values were obtained:
Menin-MLL = biological target: T1, Menin-MLL (Homo sapiens, UniProt O00255); test: Inhibitory activity against Menin-MLL binding (fluorescence polarization); conditions: 150 nM His-Menin, 15 nM FITC-MLL, 25°C for 60 min
T1 construct: His-Menin (M1-L615 end); purchased BIORTUS BP9210
T1 sequence (O00255 1-615 isoform O00255-1): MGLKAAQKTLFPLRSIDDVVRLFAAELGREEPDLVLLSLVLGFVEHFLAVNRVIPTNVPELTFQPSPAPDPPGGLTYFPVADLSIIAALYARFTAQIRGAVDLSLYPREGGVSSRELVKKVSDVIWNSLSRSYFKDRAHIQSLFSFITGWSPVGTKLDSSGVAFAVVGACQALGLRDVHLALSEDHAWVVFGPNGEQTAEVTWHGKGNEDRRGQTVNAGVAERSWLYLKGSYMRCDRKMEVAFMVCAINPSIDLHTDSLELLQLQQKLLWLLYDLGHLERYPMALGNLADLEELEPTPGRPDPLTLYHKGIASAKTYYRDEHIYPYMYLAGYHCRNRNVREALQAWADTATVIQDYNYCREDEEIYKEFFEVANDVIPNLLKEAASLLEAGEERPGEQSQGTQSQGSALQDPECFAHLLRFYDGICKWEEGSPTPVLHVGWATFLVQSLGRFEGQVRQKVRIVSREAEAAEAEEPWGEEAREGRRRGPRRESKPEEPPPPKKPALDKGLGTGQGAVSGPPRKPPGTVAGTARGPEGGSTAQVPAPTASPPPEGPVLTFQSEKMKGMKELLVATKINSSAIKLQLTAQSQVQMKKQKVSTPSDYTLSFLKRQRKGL
Summary of the method: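 His-Menin (M1-L615, 150 nM) preincubated with compound 15 min at 25 °C in HEPES pH 7.5, 50 mM NaCl, 1 mM DTT, 0.01% BSA, then 15 nM FITC-MLL4-43 peptide added for 60 min at 25 °C. Fluorescence polarization read; IC50 from 4-parameter logistic fit, duplicates.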

[1] = tested on: MOLM-13 (carrying MLL-AF9); test: Inhibition of proliferation of human tumor cells (Alamar Blue, 7 days), MOLM-13; format: cell-based; conditions: Homo sapiens, MOLM-13 cells (carrying MLL-AF9), method calls the value GI50
Summary of the method: (§1)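 Cells seeded at 4,000/well (MV-4-11, MOLM-13) or 3,000/well (KG-1a), treated in duplicate with serial compound dilutions for 7 days at 37°C, 5% CO2. Alamar Blue fluorescence read on Day 7, normalised to 0.1% DMSO Day-7 (high) and Day-0 (low) controls; GI50 derived.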

KG-1a (wild-type MLL) = test: Inhibition of proliferation of human tumor cells (Alamar Blue, 7 days), KG-1a control cell line; format: cell-based; conditions: 168 h, KG-1a cells (wild-type MLL, control cell line), method calls the value GI50
Text: Experimental Example 2: Evaluation of Inhibitory Activity of Compounds Against Proliferation of Human Tumor Cells
• Human acute lymphoblastic leukemia cells MV-4-11, purchased from American Type Culture Collection, Catalog Number: CRL-9591; • Human acute myeloid leukemia cells MOLM-13, purchased from COBIOER BIOSCIENCES CO., LTD, Catalog Number: CBP60678; • Human acute myeloid leukemia cells KG-1a, purchased from American Type Culture Collection, Catalog Number: CCL-246.1; • Inverted Microscope, purchased from Olympus Tokyo; • Countess™ Automated Cell Counter, purchased from Invitrogen, Model: C10281; and • Multilabel Reader, purchased from Bio-Tek, Model: Synergy HT.
MV-4-11 cells were cultured in an IMDM medium containing 10% fetal bovine serum, KG-a cells were cultured in an IMDM medium containing 20% fetal bovine serum, or MOLM-13 cells were cultured in an RPMI-1640 medium containing 20% fetal bovine serum, each supplemented with 100 U·mL^-1 penicillin and 100 µg·mL^-1 streptomycin. These cells were cultured at 37°C with 5% CO2. The suspensions of individual cell lines were prepared in their respective media and seeded into 96-well plates at a density of 4,000 cells/well for MV-4-11 and MOLM-13 cells, or 3,000 cells/well for KG-1a cells. On the day of the experiment, a compound stock solution was diluted in a 3-fold or 4-fold gradient using DMSO. Each gradient-diluted stock solution was then further diluted 250-fold with a complete medium to prepare a series of working solutions at different concentrations. Subsequently, 100 µL of working solution (containing a 2-fold concentration series of the test compound) was added to each well, with duplicate wells set up for each concentration.
Seven days after compound addition (on Day 7), an Alamar Blue assay reagent (MCE, HY-111391 / CS-0040317) was added to measure the fluorescence intensity in each well. Wells containing the cells in the growth medium supplemented with 0.1% DMSO (Day 7) served as high-read control wells. The readouts from the wells containing the cells in the growth medium supplemented with 0.1% DMSO on the day of compound addition (Day 0) served as low-reading control well. GraphPad Prism software was used to calculate the concentration required to inhibit 50% of cell proliferation (GI50), which serves as a cell proliferation inhibition activity index.

[2] = tested on: MV-4-11 (carrying MLL-AF4); test: Inhibition of proliferation of human tumor cells (Alamar Blue, 7 days), MV-4-11; format: cell-based; conditions: Homo sapiens, MV4-11, 168 h, MV-4-11 cells (carrying MLL-AF4), method calls the value GI50
Summary of the method: as §1

[3] = fluorescence polarization, read-out: Menin-MLL IC50
[4] = Menin-MLL IC50, fluorescence polarization

IC50 (Menin-MLL; [3])	IC50 ([1]; 168 h)	IC50 (KG-1a (wild-type MLL))	IC50 [2]	Compound	IC50 (Menin-MLL; [4])	IC50 ([1]; MOLM-13, 168 h)
3 nM	22 nM	> 20000 nM		CCN(C(=O)c1cc(F)ccc1-c1cc(C2CN([C@H](CCCO)C(C)C)C2)cn2c(C)ncc12)C(C)C [Example 396, N-ethyl-5-fluoro-2-(6-{1-[(3R)-6-hydroxyl-2-methylhexan-3-yl]azacyclobutan-3-yl}-3-methylimidazo[1,5-a]pyridin-8-yl)-N-(isopropyl)benzamide]		
4.5 nM	5 nM		2 nM	Cc1nc(F)c2c(-c3ccc(F)cc3C(=O)N3[C@H](C)COC[C@H]3C)cc(C3CN([C@@H](C)C4CCOCC4)C3)cn12 [Example 209-2, (3R,5R)-4-[5-fluoro-2-(1-fluoro-3-methyl-6-{1-[(1S)-1-(oxacyclohexan-4-yl)ethyl]azacyclobutan-3-yl}imidazo[1,5-a]pyridin-8-yl)benzoyl]-3,5-dimethylmorpholine]		
29.5 nM	21 nM		12 nM	Cc1nc(F)c2c(-c3ccc(F)cc3C(=O)N3[C@H](C)COC[C@H]3C)cc(C3CN([C@H](C)C4CCOCC4)C3)cn12 [Example 209-1, (3R,5R)-4-[5-fluoro-2-(1-fluoro-3-methyl-6-{1-[(1R)-1-(oxacyclohexan-4-yl)ethyl]azacyclobutan-3-yl}imidazo[1,5-a]pyridin-8-yl)benzoyl]-3,5-dimethylmorpholine]		
15.5 nM	40 nM		50 nM	Cc1nc(F)c2c(-c3ccc(F)cc3C(=O)N(CC(F)F)C(C)C)cc(C3CN(C(=O)[C@@H]4CCCCN4)C3)cn12 [Example 131, N-(2,2-difluoroethyl)-5-fluoro-2-(1-fluoro-3-methyl-6-{1-[(2S)-piperidin-2-carbonyl]azacyclobutan-3-yl}imidazo[1,5-a]pyridin-8-yl)-N-(isopropyl)benzamide]		
50 nM	49 nM		36 nM	Cc1nc(F)c2c(-c3ccc(F)cc3C(=O)N3CCOC[C@H]3C)cc(C3CN(CC4CCN(C(=O)N5CC(F)(F)C5)CC4)C3)cn12 [Example 258]		
1 nM	3 nM		0.75 nM	CCN(C(=O)c1cc(F)ccc1-c1cc(CC2CN([C@H](CCCN(C)CCOC)C(C)C)C2)n2c(C)cncc12)C(C)C [Example 296-1, N-ethyl-5-fluoro-2-[6-({1-[(3R)-6-[(2-methoxyethyl)(methyl)amino]-2-methylhexan-3-yl]azacyclobutan-3-yl}methyl)-4-methylpyrrolo[1,2-a]pyrazin-8-yl]-N-(isopropyl)benzamide]		
17.5 nM	34 nM		17 nM	Cc1nc(F)c2c(-c3ccc(F)cc3C(=O)N3CCOC[C@H]3C)cc(C3CN(CC4CCOCC4)C3)cn12 [Example 232, (3R)-4-[5-fluoro-2-(1-fluoro-3-methyl-6-{1-[(oxacyclohexan-4-yl)methyl]azacyclobutan-3-yl}imidazo[1,5-a]pyridin-8-yl)benzoyl]-3-methylmorpholine]		
5 nM	47 nM		19 nM	CCC(=O)N1CCC([C@H](C)N2CC(c3cc(-c4ccc(F)cc4C(=O)N4CCOC[C@H]4C)c4c(F)nc(C)n4c3)C2)CC1 [Example 295]		
5.5 nM	5.4 nM		1.1 nM	CNCCCC(C(C)C)N1CC(c2cc(-c3ccc(F)cc3C(=O)N(CC(F)F)C(C)C)c3c(F)nc(C)n3c2)C1 (stereo not drawn) [Example 141, N-(2,2-difluoroethyl)-5-fluoro-2-(1-fluoro-3-methyl-6-{1-[2-methyl-6-(methylamino)hexan-3-yl]azacyclobutan-3-yl}imidazo[1,5-a]pyridin-8-yl)-N-(isopropyl)benzamide]		
4 nM	24 nM		5.2 nM	CCNC(=O)N1CCC(CN2CC(c3cc(-c4ccc(F)cc4C(=O)N(CC)C(C)C)c4cnc(C)n4c3)C2)CC1 [Example 290]		
34 nM	130 nM		54 nM	Cc1nc(F)c2c(-c3ccc(F)cc3C(=O)N3CCOC[C@H]3C)cc(C3CN([C@@H](CC[C@H]4CNCCO4)C(C)C)C3)cn12 [Example 244-2, (3R)-4-[5-fluoro-2-(1-fluoro-3-methyl-6-{1-[(3S)-4-methyl-1-[(2S)-morpholin-2-yl]pentan-3-yl]azacyclobutan-3-yl}imidazo[1,5-a]pyridin-8yl)benzoyl]-3-methylmorpholine]		
41 nM	35 nM		13 nM	COCCN(C)C1CC(C(C(C)C)N2CC(c3cc(-c4ccc(F)cc4C(=O)N4CCOC[C@H]4C)c4cnn(C)c4c3)C2)C1 (stereo partly drawn) [Example 195, 3-{1-[3-(4-{4-fluoro-2-[(3R)-3-methylmorpholin-4-carbonyl]phenyl}-1-methyl-1H-indazol-6-yl)azacyclobutan-1-yl]-2-methylpropyl}-N-(2-methoxyethyl)-N-methylcyclobutan-1-amine]		
9 nM	3.6 nM		0.95 nM	CNCCCC(C(C)C)N1CC(c2cc(-c3ccc(F)cc3C(=O)N(CC(F)F)C(C)C)c3cnc(C)n3c2)C1 (stereo not drawn) [Example 148]		
15.5 nM	61 nM		40 nM	CCS(=O)(=O)N[C@@H]1CC[C@@H](CN2CC(c3cc(-c4ccc(F)cc4C(=O)N(CC(F)F)C(C)C)c4c(F)nc(C)n4c3)C2)OC1 [Example 151]		
30 nM	31 nM		49 nM	Cc1ncc2c(-c3ccc(F)cc3C(=O)N(CC(F)F)C(C)C)cc(C3CN(C(=O)[C@@H]4CCCCN4)C3)cn12 [Example 133]		
11 nM	14 nM		5.8 nM	Cc1nc(F)c2c(-c3ccc(F)cc3C(=O)N3[C@H](C)COC[C@H]3C)cc(C3CN(CC4CCN(C(=O)c5cncnc5)CC4)C3)cn12 [Example 234]		

Compound	IC50 (Menin-MLL; [3])	IC50 ([1]; 168 h)	IC50 (KG-1a (wild-type MLL))	IC50 [2]	IC50 (Menin-MLL; [4])	IC50 ([1]; MOLM-13, 168 h)
CO[C@H]1CCN([C@H]2C[C@H](C(C(C)C)N3CC(c4cc(-c5ccc(F)cc5C(=O)N5CCOC[C@H]5C)c5cnn(C)c5c4)C3)C2)C1 (stereo partly drawn) [Example 196-1, 4-{4-fluoro-2-[(3R)-3-methylmorpholin-4-carbonyl]phenyl}-1-methyl-6-(1-{2-methyl-1-[(1r,3r)-3-[(3S)-3-methoxypyrrolidin-1-yl]cyclobutyl]propyl}azacyclobutan-3-yl)-1H-indazole]				36 nM	50 nM	120 nM
CCN(C(=O)c1cc(F)ccc1-c1cc(C2CN(C[C@H]3CC[C@H](NS(=O)(=O)CC)CC3)C2)cn2c(C)ncc12)C(C)C [Example 120, N-ethyl-5-fluoro-2-[3-methyl-6-(1-{[(1r,4r)-4-ethanesulfonamidocyclohexyl]methyl}-azacyclobutan-3-yl)imidazo[1,5-a]pyridin-8-yl]-N-(isopropyl)benzamide]				8.5 nM	8.5 nM	29.5 nM
